Measured values as given in patent US6395896B2, “Pyridazine derivatives, manufacturing method and related composition” (Shiseido Co., Ltd., priority 1999, dated 2002).

Legend:
[1] = Perfume stabilization effect (photostabilizer, sunlight exposure, judgement by perfumier); set-up: key to Sunlight exposure (80 MJ) Smell evaluation / Sunlight exposure (80 MJ) evaluation: A: No change; B: No almost change; C: Yes change
Description: Next, the photostabilization effect for each perfume was studied by the following evaluation formulation.
Each test sample was prepared. Change of smell of sample exposed to sunlight (80 MJ) was observed (judgement by perfumier).

[2] = Drug stabilization effect (sequestering agent combination); set-up: key to Sunlight exposure (80 MJ) Appearance: A: No change; B: No almost change; C: Yes change; details: for Sunlight exposure (80 MJ) Appearance / Sunlight exposure (80 MJ) Residual yield [%]: amounts wt %
Description: Next, when combined with a sequestering agent, the photostabilization effect and appearance change of a composition for each drug was studied by the following evaluation formulation.
Each test sample was prepared. Appearance change of the samples exposed to sunlight (around 80 MJ) was observed (visual evaluation). Also, residual yield of a drug was measured by liquid chromatography.

skin (face) = test: Skin irritation test: continuous use test; type: in vivo, human; details: 10 wt % ultraviolet absorbent, twice a day for 4 weeks
Description: Sample (10 wt % of ultraviolet absorbent) is the same as test example 2. The continuous use test by the healthy subjects was carried out with one group of twenty subjects. A proper amount of each sample was applied to the face twice a day for 4 weeks. The evaluation standard of Table 5 was judged. [table] The calculated average score was evaluated by the next standard. A: Average score is 0. B: Average score is over 0 and less than 1. C: Average score is 1 or more, and less than 2. D: Average score is 2 or more.

[3] = drug 2-o-α-α-glucopyranosyl-L-ascorbic acid 2.0, photostabilizer 0.03 + Sodium metaphosphate 0.03
[4] = drug 2-o-α-α-glucopyranosyl-L-ascorbic acid 2.0, photostabilizer 0.03, no sequestering agent
[5] = drug Dibutylhydroxytoluene 0.01, photostabilizer 0.03 + Sodium metaphosphate 0.03
[6] = drug Dibutylhydroxytoluene 0.01, photostabilizer 0.03, no sequestering agent
[7] = drug Dipotassium glycyrrhizinate 0.05, photostabilizer 0.03 + Sodium metaphosphate 0.03
[8] = drug Dipotassium glycyrrhizinate 0.05, photostabilizer 0.03, no sequestering agent
[9] = drug L-ascorbic acid 2-(dl-α-tocopheryl hydrogen phosphate) potassium salt 0.01, photostabilizer 0.03 + Trisodium hydroxyethyl ethylenediamine triacetate 0.03
[10] = drug L-ascorbic acid 2-(dl-α-tocopheryl hydrogen phosphate) potassium salt 0.01, photostabilizer 0.03, no sequestering agent
[11] = drug Salicylic acid 0.1, photostabilizer 0.03 + Trisodium ethylenediamine tetraacetate 0.03
[12] = drug Salicylic acid 0.1, photostabilizer 0.03, no sequestering agent

In the case of `Oc1nncc(N2CCOCC2)c1N1CCOCC1` [4,5-Dimorpholino-3-hydroxypyridazine], the “Sunlight exposure (80 MJ) Smell evaluation” value ([1]; Base perfume Aldehyde 0.03 wt %, photostabilizer 0.2 wt %) is reported as “A”, the “Sunlight exposure (80 MJ) Smell evaluation” value ([1]; Base perfume Animal 0.03 wt %, photostabilizer 0.3 wt %) is reported as “A” and the “Sunlight exposure (80 MJ) Smell evaluation” value ([1]; Base perfume Chypre 0.03 wt %, photostabilizer 0.01 wt %) is reported as “A”. The “Sunlight exposure (80 MJ) Smell evaluation” value ([1]; Base perfume Citrus 0.03 wt %, photostabilizer 0.03 wt %) was “A”, the “Sunlight exposure (80 MJ) Smell evaluation” value ([1]; Base perfume Fougere 0.03 wt %, photostabilizer 0.1 wt %) was “A” and the “Sunlight exposure (80 MJ) Smell evaluation” value ([1]; Base perfume Fruity 0.03 wt %, photostabilizer 0.1 wt %) was “A”. The “Sunlight exposure (80 MJ) Smell evaluation” value ([1]; Base perfume Green 0.03 wt %, photostabilizer 0.05 wt %) was “A”, the “Sunlight exposure (80 MJ) Smell evaluation” value ([1]; Base perfume Jasmine 0.03 wt %, photostabilizer 0.01 wt %) was “A” and the “Sunlight exposure (80 MJ) Smell evaluation” value ([1]; Base perfume Muguet 0.03 wt %, photostabilizer 0.05 wt %) was “A”. For the same compound, the “Sunlight exposure (80 MJ) Smell evaluation” value ([1]; Base perfume Oriental 0.03 wt %, photostabilizer 0.1 wt %) was “A”, the “Sunlight exposure (80 MJ) Smell evaluation” value ([1]; Base perfume Rose 0.03 wt %, photostabilizer 0.05 wt %) was “A” and the “Sunlight exposure (80 MJ) Smell evaluation” value ([1]; Base perfume Spicy 0.03 wt %, photostabilizer 0.2 wt %) was “A”. The “Sunlight exposure (80 MJ) Smell evaluation” value ([1]; Base perfume Woody 0.03 wt %, photostabilizer 0.1 wt %) was “A”, the “Sunlight exposure (80 MJ) Smell evaluation” value ([1]; Natural perfume Jasmine oil 0.03 wt %, photostabilizer 0.05 wt %) was “A” and the “Sunlight exposure (80 MJ) Smell evaluation” value ([1]; Natural perfume Lavender oil 0.03 wt %, photostabilizer 0.1 wt %) was “A”. The “Sunlight exposure (80 MJ) Smell evaluation” value ([1]; Natural perfume Neroli oil 0.03 wt %, photostabilizer 0.1 wt %) was “A”, the “Sunlight exposure (80 MJ) Smell evaluation” value ([1]; Natural perfume Rose oil 0.03 wt %, photostabilizer 0.05 wt %) was “A” and the “Sunlight exposure (80 MJ) Smell evaluation” value ([1]; Natural perfume Ylang ylang oil 0.03 wt %, photostabilizer 0.2 wt %) was “A”. For the same compound, the “Sunlight exposure (80 MJ) Smell evaluation” value ([1]; Synthetic perfume Citral 0.03 wt %, photostabilizer 0.1 wt %) was “A”, the “Sunlight exposure (80 MJ) Smell evaluation” value ([1]; Synthetic perfume Limonene 0.03 wt %, photostabilizer 0.05 wt %) was “A” and the “Sunlight exposure (80 MJ) Smell evaluation” value ([1]; Synthetic perfume Linalool 0.03 wt %, photostabilizer 0.05 wt %) was “A”. The “Sunlight exposure (80 MJ) Smell evaluation” value ([1]; Synthetic perfume Linalyl acetate 0.03 wt %, photostabilizer 0.1 wt %) was “A”, the “Sunlight exposure (80 MJ) Smell evaluation” value ([1]; Synthetic perfume Rose oxide 0.03 wt %, photostabilizer 0.2 wt %) was “A” and the change of smell ([1]; base perfume, summary of Table 19) was “very small in comparison with other photostabilizers”. The “Sunlight exposure (80 MJ) evaluation” value ([1]; natural perfume Ambergris oil, photostabilizer amount 0.3 wt %) was “A”, the “Sunlight exposure (80 MJ) evaluation” value ([1]; natural perfume Bergamot oil, photostabilizer amount 0.1 wt %) was “A” and the “Sunlight exposure (80 MJ) evaluation” value ([1]; natural perfume Castoreum oil, photostabilizer amount 0.3 wt %) was “A”. The “Sunlight exposure (80 MJ) evaluation” value ([1]; natural perfume Cinnamon oil, photostabilizer amount 0.01 wt %) was “A”, the “Sunlight exposure (80 MJ) evaluation” value ([1]; natural perfume Civet oil, photostabilizer amount 0.2 wt %) was “A” and the “Sunlight exposure (80 MJ) evaluation” value ([1]; natural perfume Clary sage oil, photostabilizer amount 0.03 wt %) was “A”. For the same compound, the “Sunlight exposure (80 MJ) evaluation” value ([1]; natural perfume Cloves oil, photostabilizer amount 0.03 wt %) was “A”, the “Sunlight exposure (80 MJ) evaluation” value ([1]; natural perfume Coriander oil, photostabilizer amount 0.01 wt %) was “A” and the “Sunlight exposure (80 MJ) evaluation” value ([1]; natural perfume Geranium oil, photostabilizer amount 0.03 wt %) was “A”. The “Sunlight exposure (80 MJ) evaluation” value ([1]; natural perfume Lemon oil, photostabilizer amount 0.001 wt %) was “A”, the “Sunlight exposure (80 MJ) evaluation” value ([1]; natural perfume Moss oil, photostabilizer amount 0.2 wt %) was “A” and the “Sunlight exposure (80 MJ) evaluation” value ([1]; natural perfume Nutmeg oil, photostabilizer amount 0.01 wt %) was “A”. For the same compound, the “Sunlight exposure (80 MJ) evaluation” value ([1]; natural perfume Oakmoss oil, photostabilizer amount 0.2 wt %) was “A”, the “Sunlight exposure (80 MJ) evaluation” value ([1]; natural perfume Opopanax oil, photostabilizer amount 0.1 wt %) was “A” and the “Sunlight exposure (80 MJ) evaluation” value ([1]; natural perfume Orange oil, photostabilizer amount 0.1 wt %) was “A”. For the same compound, the “Sunlight exposure (80 MJ) evaluation” value ([1]; natural perfume Orris oil, photostabilizer amount 0.2 wt %) was “A”, the “Sunlight exposure (80 MJ) evaluation” value ([1]; natural perfume Patchouli oil, photostabilizer amount 0.01 wt %) was “A” and the “Sunlight exposure (80 MJ) evaluation” value ([1]; natural perfume Pepper oil, photostabilizer amount 0.001 wt %) was “A”. The “Sunlight exposure (80 MJ) evaluation” value ([1]; natural perfume Peppermint oil, photostabilizer amount 0.03 wt %) was “A”, the “Sunlight exposure (80 MJ) evaluation” value ([1]; natural perfume Sandals wood oil, photostabilizer amount 0.01 wt %) was “A” and the “Sunlight exposure (80 MJ) evaluation” value ([1]; natural perfume Tuberose oil, photostabilizer amount 0.03 wt %) was “A”. For the same compound, the “Sunlight exposure (80 MJ) evaluation” value ([1]; natural perfume Vetiver oil, photostabilizer amount 0.2 wt %) was “A”, the change of smell ([1]; natural perfume, summary of Table 17) was “very small in comparison with other photostabilizers” and the “Sunlight exposure (80 MJ) Smell evaluation” value ([1]; synthetic perfume 2,6-Nonadienal, photostabilizer amount 0.03 wt %) was “A”. For the same compound, the “Sunlight exposure (80 MJ) Smell evaluation” value ([1]; synthetic perfume Benzyl benzoate, photostabilizer amount 0.1 wt %) was “A”, the “Sunlight exposure (80 MJ) Smell evaluation” value ([1]; synthetic perfume Cyclopentadecanone, photostabilizer amount 0.05 wt %) was “A” and the “Sunlight exposure (80 MJ) Smell evaluation” value ([1]; synthetic perfume Eugenol, photostabilizer amount 0.1 wt %) was “A”. The “Sunlight exposure (80 MJ) Smell evaluation” value ([1]; synthetic perfume Farnesol, photostabilizer amount 0.01 wt %) was “A”, the “Sunlight exposure (80 MJ) Smell evaluation” value ([1]; synthetic perfume I-Carvone, photostabilizer amount 0.05 wt %) was “A” and the “Sunlight exposure (80 MJ) Smell evaluation” value ([1]; synthetic perfume Indole, photostabilizer amount 0.2 wt %) was “A”. The “Sunlight exposure (80 MJ) Smell evaluation” value ([1]; synthetic perfume Lilial, photostabilizer amount 0.3 wt %) was “A”, the “Sunlight exposure (80 MJ) Smell evaluation” value ([1]; synthetic perfume Lyral, photostabilizer amount 0.3 wt %) was “A” and the “Sunlight exposure (80 MJ) Smell evaluation” value ([1]; synthetic perfume Phenylacetaldehyde dimethyl acetal, photostabilizer amount 0.2 wt %) was “A”. The “Sunlight exposure (80 MJ) Smell evaluation” value ([1]; synthetic perfume cis-3-Hexenol, photostabilizer amount 0.01 wt %) was “A”, the “Sunlight exposure (80 MJ) Smell evaluation” value ([1]; synthetic perfume α-Hexyl cinnamic aldehyde, photostabilizer amount 0.03 wt %) was “A” and the “Sunlight exposure (80 MJ) Smell evaluation” value ([1]; synthetic perfume β-Caryophyllene, photostabilizer amount 0.01 wt %) was “A”. The “Sunlight exposure (80 MJ) Smell evaluation” value ([1]; synthetic perfume β-Ionone, photostabilizer amount 0.05 wt %) was “A”, the “Sunlight exposure (80 MJ) Smell evaluation” value ([1]; synthetic perfume β-Phenylethyl alcohol, photostabilizer amount 0.03 wt %) was “A” and the “Sunlight exposure (80 MJ) Smell evaluation” value ([1]; synthetic perfume γ-Undecalactone, photostabilizer amount 0.1 wt %) was “A”. The change of smell ([1]; synthetic perfume, summary of Table 18) was “very small in comparison with other photostabilizers”, the “Sunlight exposure (80 MJ) Appearance” value [2, 3] was “A” and the “Sunlight exposure (80 MJ) Residual yield [%]” value [2, 3] was 99.3%. For the same compound, the “Sunlight exposure (80 MJ) Appearance” value [2, 4] was “A”, the “Sunlight exposure (80 MJ) Residual yield [%]” value [2, 4] was 98.3% and the “Sunlight exposure (80 MJ) Appearance” value [2, 5] was “A”. The “Sunlight exposure (80 MJ) Residual yield [%]” value [2, 5] was 98.8%, the “Sunlight exposure (80 MJ) Appearance” value [2, 6] was “B” and the “Sunlight exposure (80 MJ) Residual yield [%]” value [2, 6] was 95.8%. For the same compound, the “Sunlight exposure (80 MJ) Appearance” value [2, 7] was “A”, the “Sunlight exposure (80 MJ) Residual yield [%]” value [2, 7] was 100.0% and the “Sunlight exposure (80 MJ) Appearance” value [2, 8] was “A”. The “Sunlight exposure (80 MJ) Residual yield [%]” value [2, 8] was 97.2%, the “Sunlight exposure (80 MJ) Appearance” value [2, 9] was “A” and the “Sunlight exposure (80 MJ) Residual yield [%]” value [2, 9] was 99.4%. The “Sunlight exposure (80 MJ) Appearance” value [2, 10] was “B”, the “Sunlight exposure (80 MJ) Residual yield [%]” value [2, 10] was 98.5% and the “Sunlight exposure (80 MJ) Appearance” value [2, 11] was “A”. The “Sunlight exposure (80 MJ) Residual yield [%]” value [2, 11] was 100.1%, the “Sunlight exposure (80 MJ) Appearance” value [2, 12] was “B” and the “Sunlight exposure (80 MJ) Residual yield [%]” value [2, 12] was 99.2%. For the same compound, the “residual yield of a drug” value ([2]; with a sequestering agent, compared with compositions without, Table 30) was “very small”, the “Judgment (continuous use test, average skin reaction score)” value (skin (face); Cream) was “A (Average score is 0.)” and the “Judgment (continuous use test, average skin reaction score)” value (skin (face); Lotion) was “A (Average score is 0.)”.
